Data: US20050209237A1, “Method for decreasing capillary permeability in the retina” (priority 2002, published 2005)

System: BRB breakdown in mice exposed to vascular endothelial growth factor (VEGF)
Assay: BRB breakdown quantitated with intraperitoneal [3H]-mannitol tracer in mice after intravitreal VEGF
Type: in vivo, C57B/J6 mice
Conditions: gavage 50 mg/kg for three days prior to intravitreal VEGF 10^-6 M, [3H]-mannitol tracer at 6 hours
From the text: Intraperitoneally administered radiolabeled tracer can be used to quantitate BRB breakdown in mice exposed to vascular endothelial growth factor (VEGF). This technique is particularly advantageous with neonatal mice because of the technical difficulty involved with intravascular injections. Also, the comparison of retinas from injected and control eyes to tissues without a blood-tissue barrier corrects for variations in the amount of isotope injected or absorbed into the circulation.
Ten six- to seven-week-old C57B/J6 mice (Jackson Labs, Bar Harbor, Me.) are weighed to determine the proper dosage of anesthesia and tracer required. Mice are anesthetized with a solution containing 25 mg/kg ketamine (Ketaset; Fort Dodge Animal Health, Fort Dodge, Iowa) and 4 mg/kg rompun (Tranquived; Vedco, St. Joseph, Mo.) diluted 1:10 in saline prior to injection. […]
One ml NCSII (Amersham, Chicago, Ill.) solubilizing solution is added to each vial and the vials are incubated overnight in a 50° C. water bath. […] The specimens are counted on a Wallace 1409 Liquid Scintillation Counter (Gaithersburg, :Md.).
The counts per mg tissue are determined for treated (with 4-pyridylmethyl-phthalazine derivative) and untreated retina, lung, and kidney. Ratios of these values for treated or untreated retina/lung or kidney and for lung/kidney are calculated. […]

4-pyridylmethyl-phthalazine
retina/kidney ratio (VEGF/vehicle-treated 0.6806±0.1060, Student-t value 0.0201): 0.3881±0.0436
retina/lung ratio (cpm per mg of retina/cpm per mg of lung) (VEGF/vehicle-treated 0.8785±0.0946, Student-t value 0.0467): 0.6326±0.0656
